According to publication PMC12530850, “Synthesis, antidiabetic evaluation, and computational modeling of 3-acetyl-8-ethoxy coumarin derived hydrazones and thiosemicarbazones” (RSC Advances, 2025):
Several values for one entry are separate records, joined by “and”; a condition that tells them apart may be missing. Equal values may be shown once.

Key:
[1] = Antioxidant assay (metal chelating, Fe^2+ binding at 522 nm); settings: Fe^2+ chelating
Protocol: Fe^2+ chelating ability of novel compounds was predicted according to Dinis et al.[54] with slight modification. Fe^2+-binding capacity of novel compounds was spectrophotometrically recorded at 522 nm. This study was conducted based on previous papers.[55,56]
In this section, we studied the metal chelating method, one of the antioxidant methods for toxicity. To stop the metal ions from serving as catalysts of lipid oxidation, metal-chelating antioxidants are thus added to food products. […] In this study, EDTA was used as a standard.

[2] = molecular target: α-amylase; assay: α-amylase inhibition assay (starch substrate); type: biochemical; settings: pH 6.9, 35 °C
Protocol: A 0.4 M starch combination was made in 80 mL of NaOH solution and heated to 80 °C for 30 minutes in order to create the starch. After that, 10 μL of various chemical concentrations were combined with 35 μL of starch solution and 35 μL of phosphate buffer (pH 6.9), and the mixture was incubated for 25 minutes at 35 °C. Finally, the final combination was reincubated for 25 minutes after 20 μL of the α-amylase solution was added. Each tube was filled with 50 μL of HCl (0.1 M) to complete the reactions. At 580 nm, the absorbance was measured. The amount of αamylase needed to release one μmol of reducing sugar, which is estimated to be glucose per minute at pH 6.9 and 40 °C, is known as one α-amylase unit.[52,53]

Compound | Metal chelating (IC50) [1] [µg/mL] | IC50 [2]
COc1cccc2cc(/C(C)=N/NC(=S)Nc3ccc(C)cc3C)c(=O)oc12 [Compound 5b, (E)-N-(2,4-Dimethylphenyl)-2-[1-(8-methoxy-2-oxo-2H-chromen-3-yl)ethylidene] hydrazine-1-carbothioamide] | 58.06 ± 0.08 | 198 ± 6.04 nM
CCOc1cccc2cc(/C(C)=N/NC(=O)c3cnccn3)c(=O)oc12 [Compound 3e, (E)-N′-[1-(8-Ethoxy-2-oxo-2H-chromen-3-yl)ethylidene]pyrazine-2-carbohydrazide] | >100 | 479 ± 8.7 nM
CCOc1cccc2cc(/C(C)=N/NC(=O)c3ccccc3OC)c(=O)oc12 [Compound 3d, (E)-N′-[1-(8-Ethoxy-2-oxo-2H-chromen-3-yl)ethylidene]-2-methoxybenzohydrazide] | >100 | 177 ± 8.25 nM
COc1cccc2cc(/C(C)=N/NC(N)=S)c(=O)oc12 [Compound 5e, (E)-2-[1-(8-Methoxy-2-oxo-2H-chromen-3-yl)ethylidene]hydrazine-1-carbothioamide] | 35.96 ± 0.52 | 146 ± 7.35 nM
COc1cccc2cc(/C(C)=N/NC(=S)NCc3ccc(C)cc3)c(=O)oc12 [Compound 5c, (E)-2-[1-(8-Methoxy-2-oxo-2H-chromen-3-yl)ethylidene]-N-(4-methylbenzyl) hydrazine-1-carbothioamide] | 43.55 ± 0.10 | 128 ± 2.82 nM
CCOc1cccc2cc(/C(C)=N/NC(=O)c3ccc(F)cc3)c(=O)oc12 [Compound 3b, (E)-N′-[1-(8-Ethoxy-2-oxo-2H-chromen-3-yl)ethylidene]-4-fluorobenzohydrazide] | >100 | 252 nM and 159 nM
CCOc1cccc2cc(/C(C)=N/NC(=O)c3c[nH]c4ccccc34)c(=O)oc12 [Compound 3f, (E)-N′-[1-(8-Ethoxy-2-oxo-2H-chromen-3-yl)ethylidene]-1H-indole-3-carbohydrazide] | >100 | 425 ± 11.1 nM
O=C(O)CN(CCN(CC(=O)O)CC(=O)O)CC(=O)O [EDTA, Ethylenediaminetetraacetic acid, reference compound] | 66.82 ± 0.40 | –
COc1cccc2cc(/C(C)=N/NC(=S)NCC(C)C)c(=O)oc12 [Compound 5d, (E)-N-Isobutyl-2-[1-(8-methoxy-2-oxo-2H-chromen-3-yl)ethylidene]hydrazine-1-carbothioamide] | 50.38 ± 0.04 | 237 ± 3.43 nM
COc1cccc2cc(/C(C)=N/NC(=S)NCc3ccccc3)c(=O)oc12 [Compound 5a, (E)-N-Benzyl-2-[1-(8-methoxy-2-oxo-2H-chromen-3-yl)ethylidene]hydrazine-1-carbothioamide] | >100 | 264.5 ± 2.64 nM
CCOc1cccc2cc(/C(C)=N/NC(=O)c3cccs3)c(=O)oc12 [Compound 3a, (E)-N′-[1-(8-Ethoxy-2-oxo-2H-chromen-3-yl)ethylidene]thiophene-2-carbohydrazide] | >100 | 430 ± 7.6 nM
CCOc1cccc2cc(/C(C)=N/NC(=O)c3ccc(Br)cc3)c(=O)oc12 [Compound 3c, (E)-4-Bromo-N′-[1-(8-ethoxy-2-oxo-2H-chromen-3-yl)ethylidene]benzohydrazide] | >100 | 209 ± 12.4 nM
CCOc1cccc2cc(/C(C)=N/NC(=O)c3ccco3)c(=O)oc12 [Compound 3g, (E)-N′-[1-(8-Ethoxy-2-oxo-2H-chromen-3-yl)ethylidene]furan-2-carbohydrazide] | >100 | 189 ± 9.65 nM
